Laboratory results: US12187773B2, “Modified GIP peptide analogues” (Antag Therapeutics ApS, priority 2018, dated 2025)
*1 amine or outer side, *2 acyl side, *3 side chain or, on linkers, in order; H or OH if unused. Where a SMILES comes first, the peptide text is derived from it. Side-chain parts run from the residue outwards. The star is where a group is joined. C18 diacid = O=C(O)CCCCCCCCCCCCCCCCC(=O)*; C16 diacid = O=C(O)CCCCCCCCCCCCCCC(=O)*; γGlu = O=C(O)[C@H](CCC(=O)[*:2])N[*:1]; AEEA = NCCOCCOCC(=O)O

How the values were obtained:
Format in all cases: cell-based
[1] = molecular target: T1, human GIP receptor (Homo sapiens, UniProt P48546); test: cAMP accumulation, agonism (DiscoveRx HitHunter cAMP XS assay); set-up: host or cells: COS-7 (transient, calcium phosphate; pCMV-Script vector); conditions: Table 1B; DiscoveRx; COS-7 cells
T1 sequence (P48546 22-466): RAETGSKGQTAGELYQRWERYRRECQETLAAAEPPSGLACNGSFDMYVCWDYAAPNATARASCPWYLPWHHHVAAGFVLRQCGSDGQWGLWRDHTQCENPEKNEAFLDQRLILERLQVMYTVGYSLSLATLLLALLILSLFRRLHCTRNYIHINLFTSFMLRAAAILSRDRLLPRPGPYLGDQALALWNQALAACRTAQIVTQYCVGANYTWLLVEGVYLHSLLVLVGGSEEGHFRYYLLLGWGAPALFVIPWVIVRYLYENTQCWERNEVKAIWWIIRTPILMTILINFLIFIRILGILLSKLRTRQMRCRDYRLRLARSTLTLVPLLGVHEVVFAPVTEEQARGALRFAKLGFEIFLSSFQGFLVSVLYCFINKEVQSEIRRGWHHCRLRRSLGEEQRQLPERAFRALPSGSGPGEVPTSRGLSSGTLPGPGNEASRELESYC
Procedure, shortened: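 cAMP accumulation measured by HitHunter cAMP XS in COS-7 cells transiently expressing human GIP receptor, after 30 min in HBS with 1 mM IBMX at 37 °C. Antagonists preincubated 10 min before GIP giving 50-80% of maximum, then 20 min more; agonist mode used 30 min ligand exposure.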

[2] = molecular target: T1, human GIP receptor; test: cAMP agonism (CisBio cAMP Dynamic 2 HTRF assay); conditions: HEK293, read-out: cAMP agonism, % Efficacy, Table 1C, HEK-293 cells
Method: To test for agonistic properties at the GIP receptor, compounds were diluted and added to cells as described above and incubated for 30 min at 37° C. The resulting increase in intracellular cAMP was determined using the CisBio cAMP Dynamic 2 HTRF Assay Kit as described above.

[3] = molecular target: T1, human GIP receptor; test: cAMP accumulation, antagonism (DiscoveRx HitHunter cAMP XS assay); set-up: host or cells: COS-7 (transient, calcium phosphate; pCMV-Script vector); conditions: Table 1B, DiscoveRx; for cAMP antagonism, % inhib: COS-7 cells, % inhibition of Emax; for IC50: cAMP antagonism, nM (IC50), transiently transfected COS-7 cells
Procedure, shortened: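 Transiently transfected COS-7 cells expressing human GIP receptor, pretreated with 1 mM IBMX in HBS 30 min at 37 °C. Agonism: ligand 30 min at 37 °C; antagonism: 10 min antagonist preincubation, then GIP at 50-80% maximal response for 20 min. cAMP measured by HitHunter cAMP XS.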

[4] = molecular target: T1, human GIP receptor; test: cAMP antagonism (CisBio cAMP Dynamic 2 HTRF assay); set-up: pCMV-Script vector; conditions: Table 1C, CisBio, HEK-293 cells; for IC50: cAMP antagonism, nM (IC50), agonist GIP1-42 at EC50
Procedure, shortened: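 Four-parameter fits of cAMP dose-response gave pIC50. cAMP fall was quantified by HTRF competition, ratio 665/620 nm after 60 min at room temperature, against a cAMP standard curve.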

SMILES	cAMP agonism, Emax [1]	Emax [2]	cAMP antagonism, % inhib [3]	cAMP antagonism, % inhib [4]	IC50 [4]	IC50 [3]
CC[C@H](C)[C@H](NC(=O)[C@H](CO)NC(=O)[C@H](Cc1ccc(O)cc1)NC(=O)[C@H](CC(=O)O)NC(=O)[C@H](CO)NC(=O)[C@@H](NC(=O)[C@H](Cc1ccccc1)NC(=O)[C@@H](NC(=O)CNC(=O)[C@@H](N)CO)[C@@H](C)O)[C@@H](C)CC)C(=O)N[C@@H](C)C(=O)N[C@@H](CCSC)C(=O)N[C@@H](CC(=O)O)C(=O)N[C@@H](CCCNC(=N)N)C(=O)N[C@H](C(=O)N[C@@H](CCCCNC(=O)COCCOCCNC(=O)CC[C@H](NC(=O)CCCCCCCCCCCCCCC(=O)O)C(=O)O)C(=O)N[C@@H](CCC(N)=O)C(=O)N[C@@H](CCC(N)=O)C(=O)N[C@@H](CC(=O)O)C(=O)N[C@@H](Cc1ccccc1)C(=O)N[C@H](C(=O)N[C@@H](CC(N)=O)C(=O)N[C@@H](Cc1c[nH]c2ccccc12)C(=O)N[C@@H](CC(C)C)C(=O)N[C@@H](CC(C)C)C(=O)N[C@@H](C)C(=O)N[C@@H](CCC(N)=O)C(=O)N[C@@H](CCCNC(=N)N)C(N)=O)C(C)C)[C@@H](C)CC [AT510] (HELM PEPTIDE1{S.G.T.F.I.S.D.Y.S.I.A.M.D.R.I.K.Q.Q.D.F.V.N.W.L.L.A.Q.R.[am]}|PEPTIDE2{[O=C(O)CCCCCCCCCCCCCCC(=O)[*:2]].[gGlu].[O=C(COCCOCCN[*:1])[*:2]]}$PEPTIDE1,PEPTIDE2,16:R3-3:R2$$$V2.0; N-terminus assumed)	No Agonism	2%	100%	87%	58.4 nM	
CC[C@H](C)[C@H](NC(=O)[C@H](CO)NC(=O)[C@H](Cc1ccc(O)cc1)NC(=O)[C@H](CC(=O)O)NC(=O)[C@H](CO)NC(=O)[C@@H](NC(=O)[C@H](Cc1ccccc1)NC(=O)[C@@H](NC(=O)CNC(=O)[C@@H]1CCCN1)[C@@H](C)O)[C@@H](C)CC)C(=O)N[C@@H](C)C(=O)N[C@@H](CCSC)C(=O)N[C@@H](CC(=O)O)C(=O)N[C@@H](CCCNC(=N)N)C(=O)N[C@H](C(=O)N[C@@H](CCCCNC(=O)COCCOCCNC(=O)CC[C@H](NC(=O)CCCCCCCCCCCCCCC(=O)O)C(=O)O)C(=O)N[C@@H](CCC(N)=O)C(=O)N[C@@H](CCC(N)=O)C(=O)N[C@@H](CC(=O)O)C(=O)N[C@@H](Cc1ccccc1)C(=O)N[C@H](C(=O)N[C@@H](CC(N)=O)C(=O)N[C@@H](Cc1c[nH]c2ccccc12)C(=O)N[C@@H](CC(C)C)C(=O)N[C@@H](CC(C)C)C(=O)N[C@@H](C)C(=O)N[C@@H](CCC(N)=O)C(=O)N[C@@H](CCCNC(=N)N)C(N)=O)C(C)C)[C@@H](C)CC [AT512] (HELM PEPTIDE1{P.G.T.F.I.S.D.Y.S.I.A.M.D.R.I.K.Q.Q.D.F.V.N.W.L.L.A.Q.R.[am]}|PEPTIDE2{[O=C(O)CCCCCCCCCCCCCCC(=O)[*:2]].[gGlu].[O=C(COCCOCCN[*:1])[*:2]]}$PEPTIDE1,PEPTIDE2,16:R3-3:R2$$$V2.0; N-terminus assumed)	No Agonism	0%	80%	73%	79.4 nM	
CC[C@H](C)[C@H](NC(=O)[C@H](CO)NC(=O)[C@H](Cc1ccc(O)cc1)NC(=O)[C@H](CC(=O)O)NC(=O)[C@H](CO)NC(=O)[C@@H](NC(=O)[C@H](Cc1ccccc1)NC(=O)[C@@H](NC(=O)CNC(=O)CN)[C@@H](C)O)[C@@H](C)CC)C(=O)N[C@@H](C)C(=O)N[C@@H](CCSC)C(=O)N[C@@H](CC(=O)O)C(=O)N[C@@H](CCCNC(=N)N)C(=O)N[C@H](C(=O)N[C@@H](CCCCNC(=O)COCCOCCNC(=O)COCCOCCNC(=O)CC[C@H](NC(=O)CCCCCCCCCCCCCCC(=O)O)C(=O)O)C(=O)N[C@@H](CCC(N)=O)C(=O)N[C@@H](CCC(N)=O)C(=O)N[C@@H](CC(=O)O)C(=O)N[C@@H](Cc1ccccc1)C(=O)N[C@H](C(=O)N[C@@H](CC(N)=O)C(=O)N[C@@H](Cc1c[nH]c2ccccc12)C(=O)N[C@@H](CC(C)C)C(=O)N[C@@H](CC(C)C)C(=O)N[C@@H](C)C(=O)N[C@@H](CCC(N)=O)C(=O)N[C@@H](CCCNC(=N)N)C(N)=O)C(C)C)[C@@H](C)CC [AT514] (H-GGTFISDYSIAMDRIK([AEEA-AEEA-γGlu-C16 diacid])QQDFVNWLLAQR-NH2; N-terminus assumed)	No Agonism	0%	80%	86%	31.6 nM	
CC[C@H](C)[C@H](NC(=O)[C@H](CO)NC(=O)[C@H](Cc1ccc(O)cc1)NC(=O)[C@H](CC(=O)O)NC(=O)[C@H](CO)NC(=O)[C@@H](NC(=O)[C@H](Cc1ccccc1)NC(=O)[C@@H](NC(=O)CNC(=O)[C@@H](N)CO)[C@@H](C)O)[C@@H](C)CC)C(=O)N[C@@H](C)C(=O)N[C@@H](CCSC)C(=O)N[C@@H](CC(=O)O)C(=O)N[C@@H](CCCNC(=N)N)C(=O)N[C@H](C(=O)N[C@@H](CCCCNC(=O)CC[C@H](NC(=O)CCCCCCCCCCCCCCC(=O)O)C(=O)O)C(=O)N[C@@H](CCC(N)=O)C(=O)N[C@@H](CCC(N)=O)C(=O)N[C@@H](CC(=O)O)C(=O)N[C@@H](Cc1ccccc1)C(=O)N[C@H](C(=O)N[C@@H](CC(N)=O)C(=O)N[C@@H](Cc1c[nH]c2ccccc12)C(=O)N[C@@H](CC(C)C)C(=O)N[C@@H](CC(C)C)C(=O)N[C@@H](C)C(=O)N[C@@H](CCC(N)=O)C(=O)N[C@@H](CCCNC(=N)N)C(N)=O)C(C)C)[C@@H](C)CC [AT504] (HELM PEPTIDE1{S.G.T.F.I.S.D.Y.S.I.A.M.D.R.I.K.Q.Q.D.F.V.N.W.L.L.A.Q.R.[am]}|PEPTIDE2{[O=C(O)CCCCCCCCCCCCCCC(=O)[*:2]].[gGlu]}$PEPTIDE1,PEPTIDE2,16:R3-2:R2$$$V2.0; N-terminus assumed)	No Agonism	0%	90%	85%	39.8 nM	21 nM
CC[C@H](C)[C@H](NC(=O)[C@H](CO)NC(=O)[C@H](Cc1ccc(O)cc1)NC(=O)[C@H](CC(=O)O)NC(=O)[C@H](CO)NC(=O)[C@@H](NC(=O)[C@H](Cc1ccccc1)NC(=O)[C@@H](NC(=O)CNC(=O)[C@@H](N)CCC(=O)O)[C@@H](C)O)[C@@H](C)CC)C(=O)N[C@@H](C)C(=O)N[C@@H](CCSC)C(=O)N[C@@H](CC(=O)O)C(=O)N[C@@H](CCCNC(=N)N)C(=O)N[C@H](C(=O)N[C@@H](CCCCNC(=O)COCCOCCNC(=O)COCCOCCNC(=O)COCCOCCNC(=O)CC[C@H](NC(=O)CCCCCCCCCCCCCCCCC(=O)O)C(=O)O)C(=O)N[C@@H](CCC(N)=O)C(=O)N[C@@H](CCC(N)=O)C(=O)N[C@@H](CC(=O)O)C(=O)N[C@@H](Cc1ccccc1)C(=O)N[C@H](C(=O)N[C@@H](CC(N)=O)C(=O)N[C@@H](Cc1c[nH]c2ccccc12)C(=O)N[C@@H](CC(C)C)C(=O)N[C@@H](CC(C)C)C(=O)N[C@@H](C)C(=O)N[C@@H](CCC(N)=O)C(=O)N[C@@H](CCCNC(=N)N)C(N)=O)C(C)C)[C@@H](C)CC [AT378] (H-EGTFISDYSIAMDRIK([AEEA-AEEA-AEEA-γGlu-C18 diacid])QQDFVNWLLAQR-NH2; N-terminus assumed)	No Agonism	0%	92%	90%		16 nM
